Results from patent US20090281054A1, “COMPOSITIONS AND METHODS COMPRISING CAPURAMYCIN ANALOGUES” (priority 2008, published 2009).
Converted amounts (≈) assume the structure as drawn. Read-outs that look alike come from different tables or passages of the source.

Key:
[1] = tested on: intracellular MTB (MTBp-SMT1) in J774A.1 macrophages; experiment: Intracellular activity of SQ641-TPGS micelles; assay type: cell-based, Mycobacterium tuberculosis
MTB cultures = experiment: Induction of morphological changes and bacterial disintegration; assay type: cell-based, Mycobacterium tuberculosis
Description: Induction of morphological changes and bacterial disintegration. […] Tubercle bacilli exposed to CM analogues were typically club-shaped, with deeply stained swollen ends (see Reddy et al. Antimicrob. Agents Chemother., 2008, 52(2), 719-721).

MTB inside macrophages = experiment: Intracellular activity of DMSO-solubilized drug in MTB infected macrophages; assay type: cell-based, Mycobacterium tuberculosis; settings: for Mean RLU at Day 7: Day 0 RLU 443, Control Day 7 4251
M. avium complex (MAC) = experiment: MIC by microdilution method in 7H9 broth; assay type: cell-based
M. smegmatis = experiment: Synergy by checkerboard titration (microdilution); assay type: cell-based
translocase I = translocase I (Escherichia coli, UniProt P0A6W3); experiment: IC50 against translocase I; assay type: biochemical
[2] = tested on: M. kansaii (MKN; ATCC12478 & 35775); experiment: MIC by microdilution method in 7H9 broth; assay type: cell-based, M. kansasii; settings: Mycobacterium kansasii, read-out: MIC
[3] = tested on: M. smegmatis (MSMG; MC2155); experiment: MIC by microdilution method in 7H9 broth; assay type: cell-based; settings: MSMG MC^2155, 72 hr
MTB in macrophages = assay type: cell-based, Mycobacterium tuberculosis
MTB [4] = experiment: Synergy by checkerboard titration (microdilution); assay type: cell-based, Mycobacterium tuberculosis
Procedure: Synergistic activity with other anti-TB drugs against MSMG, MTB, MAB, and MAC. Synergy with other anti-mycobacterial drugs was determined in two drug combinations by checkerboard titration using a microdilution method. Fractional inhibitory concentration (FIC) is the MIC in combination divided by the MIC of individual drug. An FIC index (ΣFIC) of ≦0.5 indicates synergistic activity, ≧4.0 antagonistic activity and in between, additive effect. Synergistic activity was determined against MSMG, MTB, MAB and MAC. All the three CM analogues were tested in combination with INH, RIF, EMB and SM against MSMG. Similarly, all the three CM analogues were tested in combination with INH, EMB, SM and SQ109 against MTB. Only SQ641 was tested in combination with EMB, clarithromycin (CLA) and amikacin (AMK) against MAC.

MTB [5] = experiment: Activity in acidic pH (microdilution in 7H9 broth); assay type: cell-based, Mycobacterium tuberculosis; settings: pH 7.0 to 5.0
Description: Activity in acidic pH. The pH in macrophage phagolysomes is ˜5.5. To be effective against intracellular organisms, anti-TB drugs should concentrate inside macrophages and be active in an acidic environment. The activity of SQ641 against MTB was investigated by microdilution method in 7H9 broth at different hydrogen ion concentrations.

[6] = tested on: MTB-pSMT1 luciferase reporter strain; experiment: Activity against slowly replicating (hypoxic) MTB; assay type: cell-based; settings: Mycobacterium tuberculosis
M. abscessus = experiment: Synergy by checkerboard titration (microdilution); assay type: cell-based

translocase I, sequence (P0A6W3 whole entry): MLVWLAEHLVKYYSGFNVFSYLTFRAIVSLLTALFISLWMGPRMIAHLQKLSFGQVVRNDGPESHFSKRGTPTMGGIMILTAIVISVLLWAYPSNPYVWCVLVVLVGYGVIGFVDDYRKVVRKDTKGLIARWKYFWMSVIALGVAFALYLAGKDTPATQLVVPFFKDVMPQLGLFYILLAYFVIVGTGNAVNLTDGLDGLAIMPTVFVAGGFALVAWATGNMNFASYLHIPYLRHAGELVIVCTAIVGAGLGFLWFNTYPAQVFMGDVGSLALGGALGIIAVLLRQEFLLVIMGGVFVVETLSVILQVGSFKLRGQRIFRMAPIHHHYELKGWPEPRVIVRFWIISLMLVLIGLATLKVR

CCCCCCCCCC(=O)O[C@@H]1[C@H](OC)[C@@H]([C@@H](O[C@H]2OC(C(=O)N[C@H]3CCC[C@@H](C)NC3=O)=C[C@H](O)[C@@H]2O)C(N)=O)O[C@H]1n1ccc(=O)[nH]c1=O [SQ641]
Mean RLU at Day 7 ([1]; Expt 1, one day drug exposure, 5 μg/ml, Day 0 RLU 104, CONTROL Day 7 906): 95 RLU
Mean RLU at Day 7 ([1]; Expt 1, one day drug exposure, 10 μg/ml, Day 0 RLU 104, CONTROL Day 7 906): 64 RLU
Mean RLU at Day 7 ([1]; Expt 1, one day drug exposure, 20 μg/ml, Day 0 RLU 104, CONTROL Day 7 906): 47 RLU
Mean RLU at Day 7 ([1]; Expt 2, four days drug exposure, 4 μg/ml, Day 0 RLU 205, CONTROL Day 7 491): 62 RLU
Mean RLU at Day 7 ([1]; Expt 2, four days drug exposure, 8 μg/ml, Day 0 RLU 205, CONTROL Day 7 491): 32 RLU
Mean RLU at Day 7 ([1]; Expt 2, four days drug exposure, 16 μg/ml, Day 0 RLU 205, CONTROL Day 7 491): 17 RLU
Mean RLU at Day 7 ([1]; Expt 2, four days drug exposure, 32 μg/ml, Day 0 RLU 205, CONTROL Day 7 491): 8 RLU
Bacterial disintegration / clearance of MTB cultures (MTB cultures; MTB cultures): rapid bacterial disintegration
Turbidity of MTB cultures (MTB cultures; within 2 days of exposure): marked fall in the turbidity
Mean RLU at Day 7 (MTB inside macrophages; 1 μg/ml): 1208 RLU
Mean RLU at Day 7 (MTB inside macrophages; 2 μg/ml): 1162 RLU
Mean RLU at Day 7 (MTB inside macrophages; 4 μg/ml): 1116 RLU
Mean RLU at Day 7 (MTB inside macrophages; 8 μg/ml): 441 RLU
Mean RLU at Day 7 (MTB inside macrophages; 16 μg/ml): 253 RLU
Mean RLU at Day 7 (MTB inside macrophages; 32 μg/ml): 190 RLU
Intracellular activity (FIG. 1) (MTB inside macrophages; 1× and 2× MIC): showed intracellular activities
MIC (M. avium complex (MAC); Mycobacterium avium, 336 h, MAC isolates, 2 wk, read-out: MIC (range)): 0.125 to 2 µg/mL (≈ 0.169 to 2.71 µM)
MIC (M. avium complex (MAC); Mycobacterium avium, MAC strain 100, read-out: MIC): 2 µg/mL (≈ 2.71 µM)
MIC (M. avium complex (MAC); Mycobacterium avium, MAC strain 101, read-out: MIC): 0.12 µg/mL (≈ 0.163 µM)
MIC (M. avium complex (MAC); Mycobacterium avium, MAC strain 104, read-out: MIC): 2 µg/mL (≈ 2.71 µM)
MIC (M. avium complex (MAC); Mycobacterium avium, MAC strain 109, read-out: MIC): 0.12 µg/mL (≈ 0.163 µM)
MIC (M. avium complex (MAC); Mycobacterium avium, MAC strain A5, read-out: MIC): 0.5 µg/mL (≈ 0.678 µM)
MIC (M. avium complex (MAC); Mycobacterium avium, MAC strain JSH1, read-out: MIC): 2 µg/mL (≈ 2.71 µM)
MIC (M. avium complex (MAC); Mycobacterium avium, MAC strain NIH C1-1, read-out: MIC): 0.5 µg/mL (≈ 0.678 µM)
MIC (M. avium complex (MAC); Mycobacterium avium, MAC strain NIH C1-2, read-out: MIC): 0.25 µg/mL (≈ 0.339 µM)
MIC (M. avium complex (MAC); Mycobacterium avium, MAC strain NIH C1-3, read-out: MIC): 2 µg/mL (≈ 2.71 µM)
MIC (M. avium complex (MAC); Mycobacterium avium, MAC strain NIH C1-4, read-out: MIC): 0.5 µg/mL (≈ 0.678 µM)
MIC90 (M. avium complex (MAC); Mycobacterium avium, MAC isolates, value in square brackets, read-out: MIC90): 2 µg/mL (≈ 2.71 µM)
MIC range (M. avium complex (MAC); ten MAC isolates (Table 6)): 0.125 to 2 µg/mL
ΣFIC (M. smegmatis; M. smegmatis, SQ641 + EMB): 0.375
ΣFIC (M. smegmatis; M. smegmatis, SQ641 + INH): 0.25
ΣFIC (M. smegmatis; M. smegmatis, SQ641 + RIF): 0.75
ΣFIC (M. smegmatis; M. smegmatis, SQ641 + SM): 1.0
MIC Combination (M. smegmatis; M. smegmatis, combination SQ641 + EMB): 0.25 µg/mL
MIC Combination (M. smegmatis; M. smegmatis, combination SQ641 + INH): 0.25 µg/mL
MIC Combination (M. smegmatis; M. smegmatis, combination SQ641 + RIF): 1.0 µg/mL
MIC Combination (M. smegmatis; M. smegmatis, combination SQ641 + SM): 1.0 µg/mL
Synergy with other anti-mycobacterial drugs (M. smegmatis; MSMG): synergy in combination with INH and EMB in MSMG
MIC (M. smegmatis; Mycolicibacterium smegmatis, M. smegmatis, drug alone): 2 µg/mL
IC50 against translocase I (translocase I): 0.55 µg/mL (≈ 0.745 µM)
MIC ([2]; ATCC 12478 / ATCC 35775, MKN ATCC35775): 0.25 µg/mL (≈ 0.339 µM)
MIC ([2]; MKN ATCC12478): 1 µg/mL (≈ 1.36 µM)
MIC [3]: 2 µg/mL (≈ 2.71 µM)
MIC ([3]; Mycolicibacterium smegmatis, MC2155|MC^2155, read-out: MIC): 2 µg/mL (≈ 2.71 µM)
RLU lower than the drug dissolved in DMSO (MTB in macrophages): about 50%
Mean RLU on day 7 (MTB in macrophages; SQ641 2 μg/ml, day 0 RLU 1397, Control day 7 9075): 3535 RLU
Synergy with other anti-mycobacterial drugs (MTB [4]): synergistic activity with EMB, the new diamine antitubercular SQ109, and streptomycin against MTB
ΣFIC (MTB [4]; SQ641 + EMB): 0.156
Activity at different hydrogen ion concentrations (MTB [5]): no loss
MIC [6]: 0.5 µg/mL (≈ 0.678 µM)
MIC (M. abscessus; Mycobacteroides abscessus, drug alone): 0.5 µg/mL
ΣFIC (M. abscessus; SQ641 + RFB): 0.25
ΣFIC (M. abscessus; SQ641 + SM): 0.375
MIC Combination (M. abscessus; combination SQ641 + RFB): 0.062 µg/mL
MIC Combination (M. abscessus; combination SQ641 + SM): 0.062 µg/mL
